Assay results as given in patent US11981658B2, “Substituted aminopyridine compounds as EGFR inhibitors” (YUHAN CORPORATION, priority 2021, dated 2024).
Structures can show the parent of a compound that is named as a salt. Where two headings read alike, the source gives them in different places.

Legend:
EGFR Del19/T790M/C797S = EGFR Del19/T790M/C797S (Homo sapiens, UniProt P00533, C797S/DEL746-750/T790M); assay: Biochemical EGFR kinase inhibition assay (Lance Ultra TR-FRET), triple mutant del19/T790M/C797S
Outline: (§1)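 In this biochemical assay, phosphorylation after a one-hour room-temperature reaction was detected with europium-labelled anti-phosphopeptide antibody at 2 nM final concentration.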

EGFR L858R/T790M/C797S = EGFR L858R/T790M/C797S (Homo sapiens, UniProt P00533, C797S/L858R/T790M); assay: Biochemical EGFR kinase inhibition assay (Lance Ultra TR-FRET), triple mutant L858R/T790M/C797S
Outline: as §1

EGFR Del19/C797S = EGFR Del19/C797S (Homo sapiens, UniProt P00533, C797S/DEL746-750); assay: Biochemical EGFR kinase inhibition assay (Lance Ultra TR-FRET), double mutant del19/C797S
Outline: as §1

EGFR L858R/C797S = EGFR L858R/C797S (Homo sapiens, UniProt P00533, C797S/L858R); assay: Biochemical EGFR kinase inhibition assay (Lance Ultra TR-FRET), double mutant L858R/C797S
Outline: as §1

EGFR wildtype (WT) = EGFR wildtype (WT) (Homo sapiens, UniProt P00533); assay: Biochemical EGFR kinase inhibition assay (Lance Ultra TR-FRET), wildtype
Outline: as §1

[1] = ATP at Km, read-out: IC50 Del19/T790M/C797S (nM), Km ATP
[2] = IC50 Del19/T790M/C797S (nM), 100 μM ATP
[3] = ATP at Km, read-out: IC50 L858R/T790M/C797S (nM), Km ATP
[4] = IC50 L858R/T790M/C797S (nM), 100 μM ATP
[5] = ATP at Km, read-out: IC50 Del19/C797S (nM), Km ATP
[6] = IC50 Del19/C797S (nM), 100 μM ATP
[7] = ATP at Km, read-out: IC50 L858R/C797S (nM), Km ATP
[8] = IC50 L858R/C797S (nM), 100 μM ATP
[9] = ATP at Km, read-out: IC50 WT (nM), Km ATP
[10] = Km ATP, read-out: IC50 Del19/T790M/C797S (nM), Km ATP
[11] = Km ATP, read-out: IC50 L858R/T790M/C797S (nM), Km ATP
[12] = Km ATP, read-out: IC50 Del19/C797S (nM), Km ATP
[13] = Km ATP, read-out: IC50 L858R/C797S (nM), Km ATP
[14] = Km ATP, read-out: IC50 WT (nM), Km ATP
[15] = Km ATP, read-out: IC50 Del19/T790M/C797S (nM) Km ATP
[16] = Km ATP, read-out: IC50 L858R/T790M/C797S (nM) Km ATP
[17] = Km ATP, read-out: IC50 Del19/C797S (nM) Km ATP
[18] = Km ATP, read-out: IC50 L858R/C797S (nM) Km ATP
[19] = Km ATP, read-out: IC50 WT (nM) Km ATP

Sequence of EGFR L858R/T790M/C797S (P00533 25-1210 T790M/C797S/L858R): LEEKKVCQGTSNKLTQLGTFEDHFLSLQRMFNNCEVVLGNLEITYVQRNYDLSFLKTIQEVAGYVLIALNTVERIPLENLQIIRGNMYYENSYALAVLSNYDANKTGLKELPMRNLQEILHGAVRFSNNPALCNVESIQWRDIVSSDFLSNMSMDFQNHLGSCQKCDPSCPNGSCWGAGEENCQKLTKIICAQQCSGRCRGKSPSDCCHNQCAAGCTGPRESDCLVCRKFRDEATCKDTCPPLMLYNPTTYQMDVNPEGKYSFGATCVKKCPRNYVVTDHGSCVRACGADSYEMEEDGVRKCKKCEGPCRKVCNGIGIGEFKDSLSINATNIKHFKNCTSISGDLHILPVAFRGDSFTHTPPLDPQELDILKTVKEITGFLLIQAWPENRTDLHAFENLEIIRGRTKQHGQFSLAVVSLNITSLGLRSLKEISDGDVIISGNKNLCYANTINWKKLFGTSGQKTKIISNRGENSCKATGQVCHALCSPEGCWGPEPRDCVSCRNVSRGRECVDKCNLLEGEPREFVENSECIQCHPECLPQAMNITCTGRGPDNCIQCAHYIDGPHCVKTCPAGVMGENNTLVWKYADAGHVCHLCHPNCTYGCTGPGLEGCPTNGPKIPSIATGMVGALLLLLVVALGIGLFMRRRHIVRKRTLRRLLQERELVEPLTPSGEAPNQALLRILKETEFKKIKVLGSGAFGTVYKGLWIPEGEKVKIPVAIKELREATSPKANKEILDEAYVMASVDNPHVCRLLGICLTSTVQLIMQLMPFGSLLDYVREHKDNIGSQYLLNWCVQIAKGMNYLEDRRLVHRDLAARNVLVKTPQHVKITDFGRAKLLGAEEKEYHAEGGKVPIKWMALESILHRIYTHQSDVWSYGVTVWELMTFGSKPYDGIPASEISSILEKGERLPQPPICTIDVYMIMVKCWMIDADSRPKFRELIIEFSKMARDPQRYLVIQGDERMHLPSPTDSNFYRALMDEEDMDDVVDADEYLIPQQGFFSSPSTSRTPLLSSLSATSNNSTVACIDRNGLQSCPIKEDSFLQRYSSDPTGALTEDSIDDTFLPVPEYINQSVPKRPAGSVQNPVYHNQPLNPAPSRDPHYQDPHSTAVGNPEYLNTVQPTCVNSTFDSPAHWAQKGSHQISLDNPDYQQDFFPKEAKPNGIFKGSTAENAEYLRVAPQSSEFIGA
Sequence of EGFR L858R/C797S (P00533 25-1210 C797S/L858R): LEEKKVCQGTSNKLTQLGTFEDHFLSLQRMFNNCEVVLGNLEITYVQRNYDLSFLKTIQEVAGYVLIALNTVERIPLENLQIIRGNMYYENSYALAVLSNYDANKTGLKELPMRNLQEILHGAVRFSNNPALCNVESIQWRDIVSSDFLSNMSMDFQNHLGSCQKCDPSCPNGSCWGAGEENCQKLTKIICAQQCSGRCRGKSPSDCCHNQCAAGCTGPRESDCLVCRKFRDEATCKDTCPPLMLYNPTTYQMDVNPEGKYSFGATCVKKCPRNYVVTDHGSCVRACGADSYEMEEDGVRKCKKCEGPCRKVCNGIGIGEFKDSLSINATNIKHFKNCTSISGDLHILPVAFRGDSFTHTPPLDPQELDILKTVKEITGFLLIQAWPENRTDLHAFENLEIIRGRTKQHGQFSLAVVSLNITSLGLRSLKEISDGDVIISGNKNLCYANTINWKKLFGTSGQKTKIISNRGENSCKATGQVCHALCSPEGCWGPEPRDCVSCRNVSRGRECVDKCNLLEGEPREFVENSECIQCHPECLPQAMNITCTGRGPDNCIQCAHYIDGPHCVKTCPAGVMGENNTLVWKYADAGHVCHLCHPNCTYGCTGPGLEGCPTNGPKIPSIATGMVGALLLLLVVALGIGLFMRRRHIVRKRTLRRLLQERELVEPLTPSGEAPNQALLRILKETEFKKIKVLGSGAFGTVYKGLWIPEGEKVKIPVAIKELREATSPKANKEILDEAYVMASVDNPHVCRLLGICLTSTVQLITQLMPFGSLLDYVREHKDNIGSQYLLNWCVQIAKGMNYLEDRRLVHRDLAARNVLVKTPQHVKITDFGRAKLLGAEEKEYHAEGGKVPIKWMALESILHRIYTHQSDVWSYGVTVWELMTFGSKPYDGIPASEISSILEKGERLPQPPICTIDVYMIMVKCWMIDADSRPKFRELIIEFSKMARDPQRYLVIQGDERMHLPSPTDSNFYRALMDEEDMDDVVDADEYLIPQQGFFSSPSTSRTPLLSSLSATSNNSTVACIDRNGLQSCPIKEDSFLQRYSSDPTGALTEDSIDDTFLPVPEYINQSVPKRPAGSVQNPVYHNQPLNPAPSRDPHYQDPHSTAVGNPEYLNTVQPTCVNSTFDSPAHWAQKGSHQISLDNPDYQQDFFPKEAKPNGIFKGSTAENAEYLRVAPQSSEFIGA
Sequence of EGFR Del19/C797S (P00533 with tags, fused parts or gaps DEL746-750/C797S): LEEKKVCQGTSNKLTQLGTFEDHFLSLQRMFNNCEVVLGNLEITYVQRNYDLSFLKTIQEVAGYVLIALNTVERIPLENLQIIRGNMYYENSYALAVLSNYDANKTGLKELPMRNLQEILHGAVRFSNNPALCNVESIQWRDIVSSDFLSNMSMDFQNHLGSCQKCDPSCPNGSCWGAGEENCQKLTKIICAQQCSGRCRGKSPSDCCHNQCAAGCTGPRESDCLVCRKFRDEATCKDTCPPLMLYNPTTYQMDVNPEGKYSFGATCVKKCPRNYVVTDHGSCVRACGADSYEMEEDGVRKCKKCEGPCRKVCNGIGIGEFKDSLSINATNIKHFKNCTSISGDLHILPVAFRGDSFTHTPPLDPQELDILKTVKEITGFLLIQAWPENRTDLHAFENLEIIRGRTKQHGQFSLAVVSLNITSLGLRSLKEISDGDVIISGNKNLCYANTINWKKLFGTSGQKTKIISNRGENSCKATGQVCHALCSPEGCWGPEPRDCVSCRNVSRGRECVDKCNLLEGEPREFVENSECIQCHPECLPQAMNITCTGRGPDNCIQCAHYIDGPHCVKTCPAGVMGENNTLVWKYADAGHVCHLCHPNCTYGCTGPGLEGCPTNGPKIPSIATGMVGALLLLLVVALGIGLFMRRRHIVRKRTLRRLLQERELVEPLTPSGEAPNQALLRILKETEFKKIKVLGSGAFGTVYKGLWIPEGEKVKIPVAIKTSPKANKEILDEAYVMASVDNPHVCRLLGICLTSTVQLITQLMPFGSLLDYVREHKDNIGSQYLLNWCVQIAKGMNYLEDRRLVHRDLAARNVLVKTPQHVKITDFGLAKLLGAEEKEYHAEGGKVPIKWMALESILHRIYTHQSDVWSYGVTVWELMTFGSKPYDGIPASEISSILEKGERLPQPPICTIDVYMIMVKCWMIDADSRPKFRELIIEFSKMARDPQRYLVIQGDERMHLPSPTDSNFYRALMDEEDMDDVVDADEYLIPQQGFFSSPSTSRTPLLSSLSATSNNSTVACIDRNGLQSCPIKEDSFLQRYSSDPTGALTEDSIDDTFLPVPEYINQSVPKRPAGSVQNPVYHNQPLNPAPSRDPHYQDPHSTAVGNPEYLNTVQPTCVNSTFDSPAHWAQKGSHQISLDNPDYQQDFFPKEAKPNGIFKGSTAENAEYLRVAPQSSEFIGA
Sequence of EGFR Del19/T790M/C797S (P00533 with tags, fused parts or gaps DEL746-750/T790M/C797S): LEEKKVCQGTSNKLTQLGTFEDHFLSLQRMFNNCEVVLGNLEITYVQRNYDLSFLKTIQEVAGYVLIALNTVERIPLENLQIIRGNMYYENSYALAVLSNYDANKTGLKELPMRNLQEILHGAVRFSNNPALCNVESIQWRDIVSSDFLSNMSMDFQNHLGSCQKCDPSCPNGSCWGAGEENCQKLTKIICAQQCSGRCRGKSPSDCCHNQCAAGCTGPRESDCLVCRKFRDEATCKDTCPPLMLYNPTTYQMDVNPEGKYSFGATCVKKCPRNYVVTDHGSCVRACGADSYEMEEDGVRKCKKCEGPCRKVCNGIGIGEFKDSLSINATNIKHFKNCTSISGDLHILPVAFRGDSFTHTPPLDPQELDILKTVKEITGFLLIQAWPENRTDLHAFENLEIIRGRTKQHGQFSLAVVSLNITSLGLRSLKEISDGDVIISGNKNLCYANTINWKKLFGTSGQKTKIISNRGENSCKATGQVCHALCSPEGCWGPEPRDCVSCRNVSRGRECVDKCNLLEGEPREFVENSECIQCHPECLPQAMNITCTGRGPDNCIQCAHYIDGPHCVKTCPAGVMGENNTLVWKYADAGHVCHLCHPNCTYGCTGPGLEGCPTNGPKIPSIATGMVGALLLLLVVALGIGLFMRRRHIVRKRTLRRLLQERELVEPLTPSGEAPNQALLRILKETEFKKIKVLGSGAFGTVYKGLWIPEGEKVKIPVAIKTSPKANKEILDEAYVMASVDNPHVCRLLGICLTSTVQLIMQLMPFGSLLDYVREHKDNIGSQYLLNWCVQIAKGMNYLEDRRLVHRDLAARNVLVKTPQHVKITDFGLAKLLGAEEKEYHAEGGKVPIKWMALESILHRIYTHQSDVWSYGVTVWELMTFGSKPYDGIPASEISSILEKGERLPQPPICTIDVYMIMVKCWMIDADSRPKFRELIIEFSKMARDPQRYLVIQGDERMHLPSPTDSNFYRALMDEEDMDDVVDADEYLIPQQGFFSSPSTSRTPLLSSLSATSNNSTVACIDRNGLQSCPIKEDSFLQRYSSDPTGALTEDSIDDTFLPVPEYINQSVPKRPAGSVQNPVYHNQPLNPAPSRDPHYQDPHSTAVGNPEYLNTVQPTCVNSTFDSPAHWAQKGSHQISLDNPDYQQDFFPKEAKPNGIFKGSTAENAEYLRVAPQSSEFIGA

Row | Structure (SMILES) | IC50 (EGFR Del19/T790M/C797S; [1]) [nM] | IC50 (EGFR Del19/T790M/C797S; [2]) [nM] | IC50 (EGFR L858R/T790M/C797S; [3]) [nM] | IC50 (EGFR L858R/T790M/C797S; [4]) [nM] | IC50 (EGFR Del19/C797S; [5]) [nM] | IC50 (EGFR Del19/C797S; [6]) [nM] | IC50 (EGFR L858R/C797S; [7]) [nM] | IC50 (EGFR L858R/C797S; [8]) [nM] | IC50 (EGFR wildtype (WT); [9]) [nM] | IC50 (EGFR wildtype (WT); IC50 WT (nM), 100 μM ATP) [nM] | IC50 (EGFR Del19/T790M/C797S; [10]) [nM] | IC50 (EGFR L858R/T790M/C797S; [11]) [nM] | IC50 (EGFR Del19/C797S; [12]) [nM] | IC50 (EGFR L858R/C797S; [13]) [nM] | IC50 (EGFR wildtype (WT); [14]) [nM] | IC50 (EGFR Del19/T790M/C797S; [15]) [nM] | IC50 (EGFR L858R/T790M/C797S; [16]) [nM] | IC50 (EGFR Del19/C797S; [17]) [nM] | IC50 (EGFR L858R/C797S; [18]) [nM] | IC50 (EGFR wildtype (WT); [19]) [nM]
1 | O=S(=O)(C1CC1)n1cc(-c2nccc(Nc3cc(N4CCC[C@H](O)C4)c(C#Cc4cnn(C(F)(F)F)c4)cn3)n2)cn1 [Example 439, (S)-1-(2-((2-(1-(Cyclopropylsulfonyl)-1H-pyrazol-4-yl)pyrimidin-4-yl)amino)-5-((1-(trifluoromethyl)-1H-pyrazol-4-yl)ethynyl)pyridin-4-yl)piperidin-3-ol] |  | 1.7 |  | 3.7 |  | 24.5 |  | 62.7 |  | > 10000 | 2.1 | 1.3 | 12.5 | 11.1 | 122 |  |  |  |  | 
2 | CC1(CO)CCN(c2cc(Nc3ccnc(-c4cnn(S(=O)(=O)C5CC5)c4)n3)ncc2C#CC2CCCC2)CC1 [Example 251, (1-(5-(Cyclopentylethynyl)-2-((2-(1-(cyclopropylsulfonyl)-1H-pyrazol-4-yl)pyrimidin-4-yl)amino)pyridin-4-yl)-4-methylpiperidin-4-yl)methanol] | 3 | 3.3 | 1.4 | 5.3 | 8.7 | 15.9 | 41.5 | 397 | 72.6 | > 10000 |  |  |  |  |  |  |  |  |  | 
3 | CC1(CO)CCN(c2cc(Nc3ccnc(-c4cnn(S(=O)(=O)C5CC5)c4)n3)ncc2C#CC2CCOC2)CC1 (stereo not shown) [Example 197, (1-(2-((2-(1-(Cyclopropylsulfonyl)-1H-pyrazol-4-yl)pyrimidin-4-yl)amino)-5-((tetrahydrofuran-3-yl)ethynyl)pyridin-4-yl)-4-methylpiperidin-4-yl)methanol] | 0.3 | 0.3 | 0.1 | 0.3 | 0.6 | 0.8 | 0.8 | 8.9 | 5.6 | 1560 |  |  |  |  |  |  |  |  |  | 
4 | O=S(=O)(C1CC1)n1cc(-c2nccc(Nc3cc(NC[C@H]4CC[C@H](CO)CC4)c(C#CC4CC5CCC4O5)cn3)n2)cn1 (stereo partly shown) [Example 425, ((1r,4r)-4-(((5-((7-Oxabicyclo[2.2.1]heptan-2-yl)ethynyl)-2-((2-(1-(cyclopropylsulfonyl)-1H-pyrazol-4-yl)pyrimidin-4-yl)amino)pyridin-4-yl)amino)methyl)cyclohexyl)methanol] |  | 2.5 |  | 5.4 |  | 120 |  | 1820 |  | > 10000 |  |  |  |  |  |  |  |  |  | 
5 | CC1(O)CCN(c2cc(Nc3ccnc(-c4cnn(S(=O)(=O)C5CC5)c4)n3)ncc2C#CC2CCS(=O)(=O)C2)CC1 (stereo not shown) [Example 429, 3-((6-((2-(1-(Cyclopropylsulfonyl)-1H-pyrazol-4-yl)pyrimidin-4-yl)amino)-4-(4-hydroxy-4-methylpiperidin-1-yl)pyridin-3-yl)ethynyl)tetrahydrothiophene 1,1-dioxide] |  | 0.5 |  | 0.3 |  | 3.4 |  | 39.7 |  | 6020 | 0.2 | 0.2 | 4.9 | 4.8 | 38.9 |  |  |  |  | 
6 | CN(C)C[C@H]1CC[C@H](COc2cc(Nc3ccnc(-c4cnn(S(=O)(=O)C5CC5)c4)n3)ncc2C#Cc2cnn(C)c2)CC1 [Example 58, 2-(1-(Cyclopropylsulfonyl)-1H-pyrazol-4-yl)-N-(4-(((1r,4r)-4-((dimethylamino)methyl)cyclohexyl)methoxy)-5-((1-methyl-1H-pyrazol-4-yl)ethynyl)pyridin-2-yl)pyrimidin-4-amine] |  | 1.1 |  | 0.5 |  | 2.8 |  | 24.7 |  | > 10000 |  |  |  |  |  | 0.3 | 0.1 | 0.6 | 4.7 | 15.1

Second part, the compound after the results:

Row | IC50 (EGFR Del19/T790M/C797S; [1]) [nM] | IC50 (EGFR Del19/T790M/C797S; [2]) [nM] | IC50 (EGFR L858R/T790M/C797S; [3]) [nM] | IC50 (EGFR L858R/T790M/C797S; [4]) [nM] | IC50 (EGFR Del19/C797S; [5]) [nM] | IC50 (EGFR Del19/C797S; [6]) [nM] | IC50 (EGFR L858R/C797S; [7]) [nM] | IC50 (EGFR L858R/C797S; [8]) [nM] | IC50 (EGFR wildtype (WT); [9]) [nM] | IC50 (EGFR wildtype (WT); IC50 WT (nM), 100 μM ATP) [nM] | IC50 (EGFR Del19/T790M/C797S; [10]) [nM] | IC50 (EGFR L858R/T790M/C797S; [11]) [nM] | IC50 (EGFR Del19/C797S; [12]) [nM] | IC50 (EGFR L858R/C797S; [13]) [nM] | IC50 (EGFR wildtype (WT); [14]) [nM] | IC50 (EGFR Del19/T790M/C797S; [15]) [nM] | IC50 (EGFR L858R/T790M/C797S; [16]) [nM] | IC50 (EGFR Del19/C797S; [17]) [nM] | IC50 (EGFR L858R/C797S; [18]) [nM] | IC50 (EGFR wildtype (WT); [19]) [nM] | Structure (SMILES)
7 | 0.1 | 0.4 | 0.03 | 1.3 | 2.3 | 6.5 | 4.2 | 34.1 | 8.6 | > 10000 |  |  |  |  |  |  |  |  |  |  | CN(C)CC1(F)CCN(c2cc(Nc3ccnc(-c4cnn(S(=O)(=O)C5CC5)c4)n3)ncc2C#Cc2cnn(C)c2)CC1 [Example 293, 2-(1-(Cyclopropylsulfonyl)-1H-pyrazol-4-yl)-N-(4-(4-((dimethylamino)methyl)-4-fluoropiperidin-1-yl)-5-((1-methyl-1H-pyrazol-4-yl)ethynyl)pyridin-2-yl)pyrimidin-4-amine formate]
8 |  | 3.2 |  | 4.8 |  | 7.9 |  | 104 |  | > 10000 |  |  |  |  |  | 3.5 | 2.4 | 4.3 | 3 | 32 | CC1(CO)CCN(c2cc(Nc3ccnc(-c4cnn(S(=O)(=O)C5CC5)c4)n3)ncc2C#Cc2cnn(C(F)(F)F)c2)CC1 [Example 101, (1-(2-((2-(1-(Cyclopropylsulfonyl)-1H-pyrazol-4-yl)pyrimidin-4-yl)amino)-5-((1-(trifluoromethyl)-1H-pyrazol-4-yl)ethynyl)pyridin-4-yl)-4-methylpiperidin-4-yl)methanol]
9 |  | 1.7 |  | 13.2 |  | 43.8 |  | 179 |  | > 10000 |  |  |  |  |  |  |  |  |  |  | Cn1cc(C#Cc2cnc(Nc3ccnc(-c4cnn(S(=O)(=O)C5CC5)c4)n3)cc2N2CCC(O)C(C)(C)C2)cn1 (stereo not shown) [Example 69, 1-(2-((2-(1-(Cyclopropylsulfonyl)-1H-pyrazol-4-yl)pyrimidin-4-yl)amino)-5-((1-methyl-1H-pyrazol-4-yl)ethynyl)pyridin-4-yl)-3,3-dimethylpiperidin-4-ol]
10 |  | 1.3 |  | 4.2 |  | 131 |  | 46.4 |  | > 10000 |  |  |  |  |  |  |  |  |  |  | COCCNC1CCN(c2cc(Nc3ccnc(-c4cnn(S(=O)(=O)C5CC5)c4)n3)ncc2C#Cc2cnn(C)c2)CC1 [Example 132, 2-(1-(Cyclopropylsulfonyl)-1H-pyrazol-4-yl)-N-(4-(4-((2-methoxyethyl)amino)piperidin-1-yl)-5-((1-methyl-1H-pyrazol-4-yl)ethynyl)pyridin-2-yl)pyrimidin-4-amine]
